Test results published in ChEMBL document CHEMBL5360581, “Discovery of a novel dual functional phenylpyrazole-styryl hybrid that induces apoptotic and autophagic cell death in bladder cancer cells” (Eur J Med Chem, 2023).
Calls of active or inactive are those of the source. The calls are words filed in the database; no cut-off is given here.

Columns and labels:
A549 [1] = test: Antiproliferative activity against human A549 cells assessed as reduction in cell viability at 20 uM measured for 72 hrs by MTT assay; format: functional, cell-based
EJ-28 [2] = test: Antiproliferative activity against human EJ-28 cells assessed as reduction in cell viability at 20 uM measured for 72 hrs by MTT assay; format: functional, cell-based
HT-1080 = test: Antiproliferative activity against human HT-1080 cells assessed as reduction in cell viability at 20 uM measured for 72 hrs by MTT assay; format: functional, cell-based
MCF7 = test: Antiproliferative activity against human MCF7 cells assessed as reduction in cell viability at 20 uM measured for 72 hrs by MTT assay; format: functional, cell-based
A549 [3] = test: Cytotoxicity against human A549 cells assessed inhibition of cell growth incubated for 72 hrs by MTT assay; format: functional, cell-based; details: A549, 72 h
EJ-28 [4] = test: Cytotoxicity against human EJ-28 cells assessed inhibition of cell growth incubated for 72 hrs by MTT assay; format: functional, cell-based; details: EJ-28, 72 h
[5] = Cytotoxicity against human NHDF cells assessed inhibition of cell growth incubated for 72 hrs by MTT assay; format: toxicity, cell-based
[6] = Selectivity index, ratio of IC50 for cytotoxicity against human NHDF cells to IC50 for cytotoxicity against human SW620 cells
[7] = Selectivity index, ratio of IC50 for cytotoxicity against human NHDF cells to IC50 for cytotoxicity against human EJ-28 cells
EJ-28 [8] = test: Induction of morphological changes in human EJ-28 cells assessed as cell rounding at 7.5 uM incubated for 24 to 72 hrs by microscopic analysis; format: functional, cell-based; details: time 24-72 hrs
EJ-28 [9] = test: Inhibition of colony formation in human EJ-28 cells at 1.25 uM incubated for 10 days by crystal violet staining based assay; format: functional, cell-based; details: time 10.0 day
EJ-28 [10] = test: Antimigratory activity in human EJ-28 cells at 1.25 to 10 uM measured for 24 hrs by imaging analysis; format: functional, cell-based; details: dose 1.25-10 µM
EJ-28 [11] = test: Induction of cell cycle arrest in human EJ-28 cells assessed as accumulation of cells at sub-G0/G1 phase at 1.25 uM incubated for 48 hrs by propidium iodide staining based flow cytometry (reference value: 48%); format: functional
EJ-28 [12] = test: Induction of cell cycle arrest in human EJ-28 cells assessed as accumulation of cells at S phase at 2.5 uM incubated for 48 hrs by propidium iodide staining based flow cytometry (reference value: 30%); format: functional
EJ-28 [13] = test: Induction of cell cycle arrest in human EJ-28 cells assessed as accumulation of cells at S phase at 5 uM incubated for 48 hrs by propidium iodide staining based flow cytometry (reference value: 30%); format: functional
EJ-28 [14] = test: Induction of cell cycle arrest in human EJ-28 cells assessed as accumulation of cells at S phase at 10 uM incubated for 48 hrs by propidium iodide staining based flow cytometry (reference value: 30%); format: functional
EJ-28 [15] = test: Induction of cell cycle arrest in human EJ-28 cells assessed as accumulation of cells at G2/M phase at 2.5 uM incubated for 48 hrs by propidium iodide staining based flow cytometry (reference value: 20%); format: functional
EJ-28 [16] = test: Induction of cell cycle arrest in human EJ-28 cells assessed as accumulation of cells at G2/M phase at 5 uM incubated for 48 hrs by propidium iodide staining based flow cytometry (reference value: 20%); format: functional
EJ-28 [17] = test: Induction of apoptosis in human EJ-28 cells assessed as downregulation of procaspase-3 expression incubated for 24 to 72 hrs by Western blotting analysis; format: functional, cell-based; details: time 24-72 hrs
EJ-28 [18] = test: Induction of apoptosis in human EJ-28 cells assessed as upregulation of PARP expression incubated for 48 to 72 hrs by Western blotting analysis; format: functional, cell-based; details: time 48-72 hrs
EJ-28 [19] = test: Induction of apoptosis in human EJ-28 cells assessed as upregulation of cleaved caspases-9 expression by Western blotting analysis; format: functional, cell-based; details: time 24-72 hrs
EJ-28 [20] = test: Induction of apoptosis in human EJ-28 cells assessed as upregulation of cleaved bid expression incubated for 24 hrs by Western blotting analysis; format: functional, cell-based
EJ-28 [21] = test: Induction of apoptosis in human EJ-28 cells assessed as upregulation of Bad expression incubated for 48 hrs by Western blotting analysis; format: functional, cell-based
EJ-28 [22] = test: Induction of apoptosis in human EJ-28 cells assessed as upregulation of PUMA expression incubated for 48 hrs by Western blotting analysis; format: functional, cell-based
EJ-28 [23] = test: Induction of apoptosis in human EJ-28 cells assessed as upregulation of Bax expression incubated for 48 to 72 hrs by Western blotting analysis; format: functional, cell-based; details: time 48-72 hrs
EJ-28 [24] = test: Induction of autophagy in human EJ-28 cells assessed as increase in green fluorescence intensity at 5 to 12.5 uM incubated for 36 to 48 hrs by flow cytometry analysis; format: functional, cell-based; details: dose 5-12.5 µM, time 36-48 hrs
EJ-28 [25] = test: Induction of autophagy in human EJ-28 cells assessed as upregulation of LC3B-2 expression at 5 to 12.5 uM incubated for 24 to 72 hrs by Western blot analysis; format: functional, cell-based; details: dose 5-12.5 µM, time 24-72 hrs
EJ-28 [26] = test: Induction of autophagy in human EJ-28 cells assessed as upregulation of Atg5-Atg12 expression at 5 to 12.5 uM incubated for 24 to 72 hrs by Western blot analysis; format: functional, cell-based; details: dose 5-12.5 µM, time 24-72 hrs
EJ-28 [27] = test: Induction of autophagy in human EJ-28 cells assessed as upregulation of Atg16L1 expression at 5 to 12.5 uM incubated for 24 to 72 hrs by Western blot analysis; format: functional, cell-based; details: dose 5-12.5 µM, time 24-72 hrs
EJ-28 [28] = test: Induction of autophagy in human EJ-28 cells assessed as upregulation of Atg3 expression at 5 to 12.5 uM incubated for 24 to 72 hrs by Western blot analysis; format: functional, cell-based; details: dose 5-12.5 µM, time 24-72 hrs
EJ-28 [29] = test: Induction of autophagy in human EJ-28 cells assessed as upregulation of Atg7 expression at 5 to 12.5 uM incubated for 24 to 72 hrs by Western blot analysis; format: functional, cell-based; details: dose 5-12.5 µM, time 24-72 hrs
EJ-28 [30] = test: Induction of autophagy in human EJ-28 cells assessed as downregulation of EGFR expression at 5 to 12.5 uM incubated for 24 hrs by Western blot analysis; format: functional, cell-based; details: dose 5-12.5 µM
EJ-28 [31] = test: Induction of autophagy in human EJ-28 cells assessed as downregulation of mTOR expression at 5 to 12.5 uM incubated for 24 hrs by Western blot analysis; format: functional, cell-based; details: dose 5-12.5 µM
EJ-28 [32] = test: Induction of autophagy in human EJ-28 cells assessed as upregulation of AKT expression at 5 to 12.5 uM incubated for 24 hrs by Western blot analysis; format: functional, cell-based; details: dose 5-12.5 µM
HEK293 = test: Cytotoxicity against HEK293 cells expressing EGFR assessed as inhibition of cell growth incubated for 24 to 72 hrs; format: toxicity, cell-based; details: human, time 24-72 hrs
EJ-28 [33] = test: Anticancer activity against human EJ-28 cells cultured as 3D spheroids assessed as decrease in spheroid volume at 5 to 20 uM measured upto 5 days by fluorescence microscopic analysis; format: functional, cell-based; details: dose 5-20 µM, time <= 5.0 day
[34] = Toxicity in Zebrafish embryo assessed as delay in hatching at 12.5 to 50 uM administered for 4 hrs post fertilization and measured after 72 hours post fertilization; parameters: species or system Danio rerio; details: in vivo, dose 12.5-50 µM
[35] = Toxicity in Zebrafish embryo assessed as body curvature at 12.5 uM administered for 4 hrs post fertilization and measured after 3 days post fertilization; parameters: species or system Danio rerio; details: in vivo, 72 h, time 3 day

## O=[N+]([O-])c1cccc(/C=C/c2cc(-c3cc(Cl)ccc3O)n(-c3ccccc3)n2)c1
A549 [1]
  Activity: Active
EJ-28 [2]
  Activity: Active
HT-1080
  Activity: Active
MCF7
  Activity: Active
A549 [3]
  IC50: 15.1 µM
EJ-28 [4]
  IC50: 2.8 µM
[5]
  IC50 at 72 h: 39.7 µM
[6]
  Ratio IC50: 2.6
[7]
  Ratio IC50: 2.6
EJ-28 [8]
  Activity: Active
EJ-28 [9]
  inhibition: inactive
EJ-28 [10]
  inhibition: Active
EJ-28 [11]
  Activity: 53%
EJ-28 [12]
  Activity: 16%
EJ-28 [13]
  Activity: 21%
EJ-28 [14]
  Activity: 23%
EJ-28 [15]
  Activity: 15%
EJ-28 [16]
  Activity: 19%
EJ-28 [17]
  Activity: Active
EJ-28 [18]
  Activity: inactive
EJ-28 [19]
  Activity: Dose-Dependent Effect
EJ-28 [20]
  Activity: Active
EJ-28 [21]
  Activity: Active
EJ-28 [22]
  Activity: Active
EJ-28 [23]
  Activity: Active
EJ-28 [24]
  Activity: inactive
EJ-28 [25]
  Activity: Active
EJ-28 [26]
  Activity: Active
EJ-28 [27]
  Activity: inactive
EJ-28 [28]
  Activity: inactive
EJ-28 [29]
  Activity: inactive
EJ-28 [30]
  Activity: Active
EJ-28 [31]
  Activity: Active
EJ-28 [32]
  Activity: Active
HEK293
  Activity: Non-Toxic
EJ-28 [33]
  Activity: Active
[34]
  Activity: Non-Toxic
[35]
  Activity: Non-Toxic
